Data set [1] in a line: In vitro digestion of gliadin peptides with gastric and pancreatic enzymes (PTCtCE). The format is in vitro ADME. As to conditions: pH 7.04. Here is the method: (§1) In vitro Digestion of Gliadin Peptides. The in vitro digestion of each peptide was performed as follows: 75 μM (final concentration) of peptide was combined with 32 μL of 0.03 M HCl, pepsin (1:100 w pepsin/w peptide) and water to give a volume of 104 μL. The reaction was carried out for 30 minutes at 37° C. and was stopped by the addition of 40 μL of 1M sodium phosphate/sodium bisphosphate (pH 7.04). Chymotrypsin (1:100 w/w), trypsin (1:100.7 w/w), elastase (1:200 w/w), and carboxypeptidase A (1:100 w/w) were then added to give a final reaction volume of 168 μL. The reaction mixture was incubated at 37° C. for the indicated time and then stopped by heating at 90° C. for 5 minutes. Alternatively, the peptide ([…]) was combined with rat intestinal brush border enzymes, where the final concentration of brush border aminopeptidase N was 100 μU/μL. The rat intestinal brush border was prepared as described (Ahnen et al., 1982) and the activity was measured by assaying continuously at 30° C. in 0.1 M Tris HCl, pH 8.0, containing 1 mM Leu-pNA [extinction coefficient at 410 nm (ε410)=8,800 M^−1/cm^−1] in 1% dimethyl sulfoxide to improve solubility. In some reactions prolyl endopeptidase was also added at a final concentration of 100 μU/μL. The reaction mixture was analyzed by reverse phase HPLC on a Vydac 218MS54 column (4.6 mm inner diameter×15 cm).
(§2) Digestive resistance of gliadin peptides and effect of PEP. The gliadin peptides P2-P8 (Table 1) were incubated with pepsin, trypsin, chymotrypsin, carboxypeptidase A, and elastase (PTCtCE) and purified rat intestinal brush border membranes (BBM) as previously detailed (Shan et al., 2002) to assess their resistance to digestion. […] Peptides P2, P3, P5 contain one or more epitopes from α-gliadin, whereas P7 and P8 carry γ-gliadin epitopes. P4 is believed to stimulate the innate immune system, and P6 has macrophage stimulating activity.

Data set [2] is described as follows: In vitro digestion of gliadin peptides with brush border membranes. In kind it is in vitro ADME, rat. As for the experimental part:
as §1, §2

Data set [3] can be described thus: In vitro digestion with brush border membranes supplemented with PEP. As to conditions: rat, kidney or brush border membranes, BBM plus 100 μU/μL PEP, 37° C. The format is in vitro ADME. Here is the method: as §1, with “The rat intestinal brush border was prepared as described (Ahnen et al., 1982) and the activity was measured by assaying continuously at 30° C. in 0.1 M Tris HCl, pH 8.0, containing 1 mM Leu-pNA [extinction coefficient at 410 nm (ε410)=8,800 M^−1/cm^−1] in 1% dimethyl sulfoxide to improve solubility. In some reactions prolyl endopeptidase was also added at a final concentration of 100 μU/μL.” left out
Given the stability of gliadin peptides to intestinal peptidases and initial results indicating PEP is active against α-gliadin epitopes, the efficacy of in vitro digestion with PEP was examined. To quantify the incremental effect of PEP, we incubated the gliadin peptides with purified brush border membranes, supplemented with 100 μU/μL of PEP for 1 or 4 hours at 37° C.

In data set [4] the test system is intact rat intestine co-perfused with prolyl endopeptidase (PEP). The format is in vivo, Sprague-Dawley rats. Conditions: co-perfused with 50 μM P5; ~190 μU/μL; ca. 1:5 weight ratio PEP:P5. From the text:
In vivo Rat Intestinal Perfusion. Our procedure for in vivo intestinal perfusion of peptides in rats was modified from the Smithson and Gray procedure as follows: Sprague-Dawley rats, 250-350 g were anesthetized with isoflurane, the abdomen opened, the ligament of Treitz (duodenal-jejunal junction) identified and polyethylene catheters [2.5 mm outer diameter×1 mm inner diameter] were installed with the proximal infusion catheter placed 5 cm beyond the ligament of Treitz and the collection catheter positioned 20 cm distally. Animal core temperature was monitored to be at 37° C. by rectal thermometer. Peptides for intra-intestinal perfusion were 1 mM GLGG, 0.1 mM P3, 0.1 mM P4, 0.1 mM P5, 0.1 mM P8, 0.1 mM P9, and 0.1 mM P10. […]
In a separate experiment, pepsin, trypsin and chymotrypsin digested gliadin (Sigma, St. Louis, Mo.) was perfused at 2 mg/mL along with 0.05 mM P5 and 41.7 […] PEP (˜190 μU/μL) to determine the effect of smaller, more accessible peptide fragments on P5 digestion. The perfusion effluent was collected, immediately frozen and subsequently analyzed by reverse phase HPLC on a Vydac 218MS54 column (4.6 mm inner diameter×15 cm). The rate of substrate disappearance for the peptides was calculated as previously detailed (Smithson and Gray, 1977). […]

Read-outs that look alike come from different tables or passages of the source. Ends that are not written are not given here. Some results are limits rather than exact numbers.

By amount remaining is commonly meant the share of the starting amount still present when the sample was taken.

Consider FLQPQQPFPQQPQQPYPQQPQQPFPQ [Peptide P8], for which the metabolised at 4 h, 75 µM was 13% in data set [1] (75 μM peptide, 37° C., 4 hr, NR = no reaction, read-out: percentage of parent material digested, PTCtCE 4 hr); 19% in data set [2] (rat, kidney or brush border membranes, 75 μM peptide, aminopeptidase N 100 μU/μL, 4 hr, read-out: percentage of parent material digested, BBM 4 hr); greater than 99% in data set [3] (4 hr, read-out: percentage of parent material digested, BBM + PEP 4 hr). Also, the share remaining at 4 h, 75 µM in data set [2] (rat, kidney or brush border membranes, 4 hours, read-out: starting material remaining after BBM exposure) was roughly 70%. Also, in data set [3] (1 hr, read-out: percentage of parent material digested, BBM + PEP 1 hr), the metabolised at 1 h, 75 µM is greater than 99%.
In data set [2], “LGQQQPFPPQQPYPQPQPF [Peptide P4, LGQQQPFPPQQPYPQPQPF]” came in with a metabolised at 1 h, 75 µM of 77% and a metabolised at 4 h, 75 µM of 98%.
In data set [1], “LQLQPFPQPQLPYPQPQLPYPQPQLPYPQPQPF [Peptide P5]” showed a metabolised at 4 h, 75 µM of 10%. Moreover, in data set [2], the metabolised at 1 h, 75 µM came to 20% and the metabolised at 4 h, 75 µM stood at 28%. For the same molecule, the amount remaining at 4 h, 75 µM in data set [2] (rat, kidney or brush border membranes) is roughly 70%.
For QLQPFPQPQLPY [Peptide P2, QLQPFPQPQLPY], the metabolised at 4 h, 75 µM in data set [1] worked out at 1%. Moreover, in data set [2], the metabolised at 1 h, 75 µM was found to be 71% and the metabolised at 4 h, 75 µM is 94%.
The corresponding values for “VSFQQPQQQYPSSQ [Peptide P6, VSFQQPQQQYPSSQ]” are 48%, 97% and 99%.

B1: PEP: Flavobacterium meningosepticum prolyl endopeptidase, purchased or prepared from recombinant E. coli (protein, UniProt P27028 21-705, looked up)
Prolyl endopeptidase: QNSNVLKYPETKKVSHTDTYFGTQVSDPYRWLEDDRAEDTKAWVQQEVKFTQDYLAQIPFRDQLKKQLMDIWNYEKISAPFKKGKYTYFSKNDGLQAQSVLYRKDAAGKTEVFLDPNKFSEKGTTSLASVSFNKKGTLVAYSISEGGSDWNKIIILDAETKKQLDETLLDVKFSGISWLGDEGFFYSSYDKPKEGSVLSGMTDKHKVYFHKLGTKQSQDELIIGGDKFPRRYIGAYVTDDQRYLVVSAANATNGNELYIKDLKNKTDFIPIITGFDSNVNVADTDGDTLYLFTDKDAPNKRLVKTTIQNPKAETWKDVIAETSEPLEINTGGGYFFATYMKDAIDQVKQYDKNGKLVRAIKLPGSGNASGFGGEKTEKDLYYSFTNYITPPTIFKYNVTTGNSEVYQKPKVKFNPENYVSEQVFYTSSDGTKIPMMISYKKGLKKDGKNPTILYSYGGFNISLQPAFSVVNAIWMENGGIYAVPNIRGGGEYGKKWHDAGTKMQKKNVFNDFIAAGEYLQKNGYTSKEYMALSGRSNGGLLVGATMTMRPDLAKVAFPGVGVLDMLRYNKFTAGAGWAYDYGTAEDSKEMFEYLKSYSPVHNVKAGTCYPSTMVITSDHDDRVVPAHSFKFGSELQAKQSCKNPILIRIETNAGHGAGRSTEQVVAENADLLSFALYEMGIKSLK
In the case of B1, the “amount of PEP required to eliminate P5 under the perfusion conditions” value in data set [4] came to 41.7 µg/mL.
